The values below come from US5316944A, “Enzymatic resolution of a racemic mixture of gamma-amino acids using penicillin acylase” (Merrell Dow Pharmaceuticals, priority 1992, dated 1994).

In experiment [1] the target is penicillin acylase (Escherichia coli, UniProt P06875). Put plainly: penicillin acylase-catalyzed hydrolysis of N-phenylacetyl derivatives. It is filed as biochemical, E.coli. The conditions noted are these: for E: E values calculated from the yields and the ee's of the (R)-enantiomers; for Reaction rate: [S] = 50 mm, pH 7.8, 25° C. An excerpt: Here we report a simple procedure for the preparation of the enantiomers of γ-ethynyl GABA, γ-allenyl GABA, and γ-vinyl GABA by penicillin acylase-catalyzed hydrolysis of the corresponding N-phenylacetyl derivatives. Penicillin acylase (PA) from E.coli is used in industry for the preparation of 6-aminopenicillanic acid and semisynthetic β-lactam antibiotics (V. K. Svedas et al., Enzyme Microb. Technol., 2, 138 (1980)). PA is highly specific to phenylacetyl group and catalyzes its cleavage not only from penicillins, but also from amides, peptides, and esters (M. Cole, Biochem J., 115, 733 (1969); Ibid, 741; and, A. Czentirmai, Acta Microbiol. Acad. Sci. Hung., 12, 395 (1965/1966). The structure of the leaving group of the substrates hardly affects the rate constants of the hydrolytic reactions (M. Cole, Nature, 203, 519 (1964), and A. L. Margolin et al., Biochim. Biophys. Acta, 616, 283 (1980)). The enantioselectivity of PA was exploited in the preparation of amino acids (D. Rossi et al., Experientia, 33, 1557 (1977) and Ibid, 41, 35 (1985)), aminoalkylphosphonic acids (V. A. Solodenko et al., Tetrahedron, 47, 3989 (1991)), esters and alcohols (C. Fuganti et al., Tetrahedron Letters, 44, 2575 (1988), and H. Waldman, 30, 3057 (1989)), although the hydrolysis of an ester bond normally results in products with modest optical purity.
In a typical experiment, 0.7 g of penicillin acylase immobilized on Eupergit C, was suspended in a solution of (N-phenylacetyl)-vinyl GABA (1.0 g; 4 mmol) in 35 ml 0.1 M phosphate buffer, pH 7.8. The mixture was stirred at room temperature (r.t.) for 5 hours. Then the solution was adjusted to pH 2 and the remaining substrate was extracted with CH2 Cl2 to give (S)-(N-phenylacetyl)-vinyl GABA (organic layer) and (R)-γ-vinyl GABA (aqueous). Since the chemical deacylation of (S)-(N-phenylacetyl)-vinyl GABA under acid conditions results in the formation of byproducts the same enzyme was used for the deacylation of (S)-(N-phenylacetyl)-vinyl GABA. To achieve an effective hydrolysis, a larger amount of Eupergit-PA (1.5 g), higher reaction temperature (45° C.), and longer reaction time (2 days) were used. When the reaction was complete (HPLC) the Eupergit-PA was filtered off and phenylacetic acid was extracted with CH2 Cl2 from acidic solution (pH 2). The aqueous solution of both (R)- and (S)-γ-vinyl GABA were subjected to ion-exchange chromatography (Dowex 1×2- 100 (OH-)) followed by lyophilization. The enamtiomers of γ-ethynyl GABA and γ-allenyl GABA were prepared by the same procedure (Table 1).
^b [S] = 50 mm; pH 7.8:25° C.
^f The E values were calculated from the yields and the ee's of the
(R)enantiomers (C. S. Chen, et al., J. Am. Chem. Soc., 104, 7294 (1982)).

In experiment [2] the test system is experimentally-induced seizures. The conditions noted are these: compared with (S)-counterpart or racemic compound; cited from earlier work.
Experiment [3] concerns GABA-T. Conditions: known to elevate brain levels of GABA; cited from earlier work.
For experiment [4] the following is noted: which enantiomer is active; cited from earlier work.

Chain of penicillin acylase (P06875 290-846): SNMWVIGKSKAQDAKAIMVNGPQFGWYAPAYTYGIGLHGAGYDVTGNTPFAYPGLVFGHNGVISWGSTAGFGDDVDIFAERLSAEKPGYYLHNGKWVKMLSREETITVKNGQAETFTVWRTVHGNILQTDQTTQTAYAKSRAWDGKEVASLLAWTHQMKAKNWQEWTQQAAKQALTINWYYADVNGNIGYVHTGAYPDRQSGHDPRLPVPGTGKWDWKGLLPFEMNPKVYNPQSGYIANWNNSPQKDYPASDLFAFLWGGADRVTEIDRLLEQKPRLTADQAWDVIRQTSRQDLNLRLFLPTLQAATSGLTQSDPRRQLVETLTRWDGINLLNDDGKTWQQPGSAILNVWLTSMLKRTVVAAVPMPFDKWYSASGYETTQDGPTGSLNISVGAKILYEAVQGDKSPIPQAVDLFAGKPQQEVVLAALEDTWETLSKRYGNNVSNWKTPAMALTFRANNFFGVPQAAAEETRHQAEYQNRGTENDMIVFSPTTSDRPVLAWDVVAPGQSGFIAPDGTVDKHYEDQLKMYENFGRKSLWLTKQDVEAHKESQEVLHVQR
Chain of penicillin acylase (P06875 27-235): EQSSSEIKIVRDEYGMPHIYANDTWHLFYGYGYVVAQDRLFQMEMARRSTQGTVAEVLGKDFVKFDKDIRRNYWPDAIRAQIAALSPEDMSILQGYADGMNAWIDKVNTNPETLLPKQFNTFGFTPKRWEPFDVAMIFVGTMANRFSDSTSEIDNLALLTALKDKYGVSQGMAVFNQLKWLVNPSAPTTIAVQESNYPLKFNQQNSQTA

For `C=C=CC(CCC(=O)O)NC(=O)Cc1ccccc1` (racemic) [Allenyl], in experiment [1], the E was 20 and the Reaction rate was found to be 46%.

For `C#CC(CCC(=O)O)NC(=O)Cc1ccccc1` (racemic) [Ethynyl], in experiment [1], the E is given as above 100 and the Reaction rate is 100%.

Turning to `C=CC(CCC(=O)O)NC(=O)Cc1ccccc1` (racemic) [Vinyl, (N-phenylacetyl)-vinyl GABA], in experiment [1], the E is on record as 17 and the Reaction rate was determined as 39%.

Take `C#C[C@H](N)CCC(=O)O` [(R)-γ-ethynyl GABA]: in experiment [2], the “activity as an anticonvulsant agent” value is “more active”.

Take `C=C=CC(N)CCC(=O)O` (stereo not drawn) [γ-allenyl GABA, 4-amino-hepta-5,6-dienoic acid]: in experiment [3], the “inhibition of GABA-T” value is given as “irreversible inhibitors”. Besides, in experiment [4], the biological activity entry is listed as “resides in the (S)-enantiomers”.

Consider `C#CC(N)CCC(=O)O` (stereo not drawn) [γ-ethynyl GABA, 4-aminohex-5-ynoic acid], for which the “inhibition of GABA-T” value in experiment [3] is “irreversible inhibitors”.

As to `C=CC(N)CCC(=O)O` (stereo not drawn) [γ-vinyl GABA, 4-aminohex-5-enoic acid], the “inhibition of GABA-T” value in experiment [3] was “irreversible inhibitors”. Moreover, the biological activity entry in experiment [4] is reported as “resides in the (S)-enantiomers”.
